Data published in the NIST ThermoML archive (doi:10.1016/j.fluid.2012.11.039).
Numbers after ± are expanded uncertainties.

Legend:
[1] = Liquid, Vibrating tube method
[2] = xn = mol fraction of the nth substance listed; settings: Liquid, Vibrating tube method

CCCCCCCCCC [decane]
mass density ([1]; 373.2 K, 100 kPa): 667.1 ± 0.3 kg/m3 | mass density ([1]; 373.2 K, 1000 kPa): 668.4 ± 0.4 kg/m3 | mass density ([1]; 373.2 K, 2000 kPa): 669.6 ± 0.4 kg/m3 | mass density ([1]; 373.2 K, 3000 kPa): 670.9 ± 0.4 kg/m3 | mass density ([1]; 373.2 K, 4000 kPa): 672.1 ± 0.4 kg/m3 | mass density ([1]; 373.2 K, 5000 kPa): 673.4 ± 0.4 kg/m3 | mass density ([1]; 373.2 K, 6000 kPa): 674.5 ± 0.4 kg/m3 | mass density ([1]; 373.2 K, 7000 kPa): 675.7 ± 0.4 kg/m3 | mass density ([1]; 373.2 K, 8000 kPa): 676.9 ± 0.4 kg/m3 | mass density ([1]; 373.2 K, 9000 kPa): 678.1 ± 0.4 kg/m3 | mass density ([1]; 373.2 K, 10000 kPa): 679.2 ± 0.4 kg/m3

CCCCCCCCCC [decane] + CCCCCCCCCCCCCCCCCC
mass density ([2]; 373.2 K, 100 kPa, x2 = 0): 667.1 ± 0.3 kg/m3 | mass density ([2]; 373.2 K, 1000 kPa, x2 = 0): 668.4 ± 0.4 kg/m3 | mass density ([2]; 373.2 K, 2000 kPa, x2 = 0): 669.6 ± 0.4 kg/m3 | mass density ([2]; 373.2 K, 3000 kPa, x2 = 0): 670.9 ± 0.4 kg/m3 | mass density ([2]; 373.2 K, 4000 kPa, x2 = 0): 672.1 ± 0.4 kg/m3 | mass density ([2]; 373.2 K, 5000 kPa, x2 = 0): 673.4 ± 0.4 kg/m3 | mass density ([2]; 373.2 K, 6000 kPa, x2 = 0): 674.5 ± 0.4 kg/m3 | mass density ([2]; 373.2 K, 7000 kPa, x2 = 0): 675.7 ± 0.4 kg/m3 | mass density ([2]; 373.2 K, 8000 kPa, x2 = 0): 676.9 ± 0.4 kg/m3 | mass density ([2]; 373.2 K, 9000 kPa, x2 = 0): 678.1 ± 0.4 kg/m3 | mass density ([2]; 373.2 K, 10000 kPa, x2 = 0): 679.2 ± 0.4 kg/m3

CCCCCCCCCCCCCCCCCC [octadecane]
mass density ([1]; 372.9 K, 1010 kPa): 728.2 ± 0.4 kg/m3 | mass density ([1]; 372.9 K, 2010 kPa): 729.2 ± 0.4 kg/m3 | mass density ([1]; 372.9 K, 3020 kPa): 730.2 ± 0.4 kg/m3 | mass density ([1]; 372.9 K, 4000 kPa): 731.1 ± 0.4 kg/m3 | mass density ([1]; 372.9 K, 5000 kPa): 732 ± 0.4 kg/m3 | mass density ([1]; 372.9 K, 6020 kPa): 732.9 ± 0.4 kg/m3 | mass density ([1]; 372.9 K, 7010 kPa): 733.8 ± 0.4 kg/m3 | mass density ([1]; 372.9 K, 8000 kPa): 734.7 ± 0.4 kg/m3 | mass density ([1]; 372.9 K, 8990 kPa): 735.6 ± 0.4 kg/m3 | mass density ([1]; 372.9 K, 9980 kPa): 736.4 ± 0.4 kg/m3

CCCCCCCCCCCCCCCCCC [octadecane] + CCCCCCCCCC
mass density ([2]; 372.7 K, 100 kPa, x1 = 0.25): 689.9 ± 0.3 kg/m3 | mass density ([2]; 372.7 K, 1010 kPa, x1 = 0.25): 691 ± 0.4 kg/m3 | mass density ([2]; 372.7 K, 2010 kPa, x1 = 0.25): 692.2 ± 0.4 kg/m3 | mass density ([2]; 372.7 K, 3020 kPa, x1 = 0.25): 693.3 ± 0.4 kg/m3 | mass density ([2]; 372.7 K, 4010 kPa, x1 = 0.25): 694.4 ± 0.4 kg/m3 | mass density ([2]; 372.7 K, 5010 kPa, x1 = 0.25): 695.5 ± 0.4 kg/m3 | mass density ([2]; 372.7 K, 6010 kPa, x1 = 0.25): 696.6 ± 0.4 kg/m3 | mass density ([2]; 372.7 K, 7010 kPa, x1 = 0.25): 697.7 ± 0.4 kg/m3 | mass density ([2]; 372.7 K, 8010 kPa, x1 = 0.25): 698.7 ± 0.4 kg/m3 | mass density ([2]; 372.7 K, 9020 kPa, x1 = 0.25): 699.8 ± 0.4 kg/m3 | mass density ([2]; 372.7 K, 10010 kPa, x1 = 0.25): 700.8 ± 0.4 kg/m3 | mass density ([2]; 372.8 K, 100 kPa, x1 = 0.5): 705.7 ± 0.4 kg/m3 | mass density ([2]; 372.8 K, 100 kPa, x1 = 0.75): 717.8 ± 0.4 kg/m3 | mass density ([2]; 372.8 K, 1020 kPa, x1 = 0.5): 706.8 ± 0.4 kg/m3 | mass density ([2]; 372.8 K, 1050 kPa, x1 = 0.75): 718.9 ± 0.4 kg/m3 | mass density ([2]; 372.8 K, 2020 kPa, x1 = 0.5): 707.8 ± 0.4 kg/m3 | mass density ([2]; 372.8 K, 2020 kPa, x1 = 0.75): 719.9 ± 0.4 kg/m3 | mass density ([2]; 372.8 K, 2940 kPa, x1 = 0.5): 708.7 ± 0.4 kg/m3 | mass density ([2]; 372.8 K, 3000 kPa, x1 = 0.75): 720.8 ± 0.4 kg/m3 | mass density ([2]; 372.8 K, 4000 kPa, x1 = 0.75): 721.8 ± 0.4 kg/m3 | mass density ([2]; 372.8 K, 4010 kPa, x1 = 0.5): 709.9 ± 0.4 kg/m3 | mass density ([2]; 372.8 K, 5010 kPa, x1 = 0.5): 710.9 ± 0.4 kg/m3 | mass density ([2]; 372.8 K, 5010 kPa, x1 = 0.75): 722.8 ± 0.4 kg/m3 | mass density ([2]; 372.8 K, 6000 kPa, x1 = 0.5): 711.9 ± 0.4 kg/m3 | mass density ([2]; 372.8 K, 6000 kPa, x1 = 0.75): 723.7 ± 0.4 kg/m3 | mass density ([2]; 372.8 K, 7000 kPa, x1 = 0.5): 712.9 ± 0.4 kg/m3 | mass density ([2]; 372.8 K, 7010 kPa, x1 = 0.75): 724.6 ± 0.4 kg/m3 | mass density ([2]; 372.8 K, 8000 kPa, x1 = 0.5): 713.9 ± 0.4 kg/m3 | mass density ([2]; 372.8 K, 8000 kPa, x1 = 0.75): 725.5 ± 0.4 kg/m3 | mass density ([2]; 372.8 K, 8990 kPa, x1 = 0.75): 726.4 ± 0.4 kg/m3 | mass density ([2]; 372.8 K, 9010 kPa, x1 = 0.5): 714.8 ± 0.4 kg/m3 | mass density ([2]; 372.8 K, 10010 kPa, x1 = 0.5): 715.8 ± 0.4 kg/m3 | mass density ([2]; 372.8 K, 10010 kPa, x1 = 0.75): 727.4 ± 0.4 kg/m3 | mass density ([2]; 372.9 K, 1010 kPa, x1 = 1): 728.2 ± 0.4 kg/m3 | mass density ([2]; 372.9 K, 2010 kPa, x1 = 1): 729.2 ± 0.4 kg/m3 | mass density ([2]; 372.9 K, 3020 kPa, x1 = 1): 730.2 ± 0.4 kg/m3 | mass density ([2]; 372.9 K, 4000 kPa, x1 = 1): 731.1 ± 0.4 kg/m3 | mass density ([2]; 372.9 K, 5000 kPa, x1 = 1): 732 ± 0.4 kg/m3 | mass density ([2]; 372.9 K, 6020 kPa, x1 = 1): 732.9 ± 0.4 kg/m3 | mass density ([2]; 372.9 K, 7010 kPa, x1 = 1): 733.8 ± 0.4 kg/m3 | mass density ([2]; 372.9 K, 8000 kPa, x1 = 1): 734.7 ± 0.4 kg/m3 | mass density ([2]; 372.9 K, 8990 kPa, x1 = 1): 735.6 ± 0.4 kg/m3 | mass density ([2]; 372.9 K, 9980 kPa, x1 = 1): 736.4 ± 0.4 kg/m3
